From patent US20260209220A1, “SUBSTITUTED TETRAHYDROPYRROLO-PYRIDINONE COMPOUNDS AND THEIR USE IN TREATING MEDICAL CONDITIONS” (Karuna Therapeutics, Inc., priority 2022, published 2026)
pEC50: −log10 of the molar value.

Experiments:
hM4 receptors = target: T1, hM4 receptors (Homo sapiens, UniProt P08173); assay: Human M4 PAM PERK assay (CHO cells, TR-FRET, with EC20 acetylcholine); type: cell-based
T1 construct: expressed in transfected cells; host or cells: CHO cells
T1 sequence (P08173 1-479): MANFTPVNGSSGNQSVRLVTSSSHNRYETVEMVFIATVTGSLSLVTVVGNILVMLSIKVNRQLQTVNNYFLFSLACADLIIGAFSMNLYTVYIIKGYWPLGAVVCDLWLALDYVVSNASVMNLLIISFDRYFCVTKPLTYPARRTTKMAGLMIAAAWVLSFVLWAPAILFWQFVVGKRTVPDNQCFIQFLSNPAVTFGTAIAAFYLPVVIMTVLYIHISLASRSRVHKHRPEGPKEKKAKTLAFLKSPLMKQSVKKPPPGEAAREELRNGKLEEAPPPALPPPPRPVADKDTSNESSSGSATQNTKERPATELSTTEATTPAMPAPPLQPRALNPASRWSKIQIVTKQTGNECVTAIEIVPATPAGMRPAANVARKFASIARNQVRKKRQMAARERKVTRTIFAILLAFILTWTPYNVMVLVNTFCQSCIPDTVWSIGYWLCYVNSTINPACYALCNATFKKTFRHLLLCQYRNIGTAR
Method in brief: (§1)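 CHO cells expressing human or rat M4, serum-starved 4 h, then given compound (10-point, 10 μM top, ½-log) with EC20 acetylcholine (10 nM final) for 5 min at 37 °C. Lysates assayed for phospho-ERK by TR-FRET after 2 h detection at RT.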

rM4 receptors = target: T2, rM4 receptors (Rattus norvegicus, UniProt P08485); assay: Rat M4 PAM PERK assay (CHO cells, TR-FRET, with EC20 acetylcholine); type: cell-based
T2 construct: expressed in transfected cells; host or cells: CHO cells
T2 sequence (P08485 1-478): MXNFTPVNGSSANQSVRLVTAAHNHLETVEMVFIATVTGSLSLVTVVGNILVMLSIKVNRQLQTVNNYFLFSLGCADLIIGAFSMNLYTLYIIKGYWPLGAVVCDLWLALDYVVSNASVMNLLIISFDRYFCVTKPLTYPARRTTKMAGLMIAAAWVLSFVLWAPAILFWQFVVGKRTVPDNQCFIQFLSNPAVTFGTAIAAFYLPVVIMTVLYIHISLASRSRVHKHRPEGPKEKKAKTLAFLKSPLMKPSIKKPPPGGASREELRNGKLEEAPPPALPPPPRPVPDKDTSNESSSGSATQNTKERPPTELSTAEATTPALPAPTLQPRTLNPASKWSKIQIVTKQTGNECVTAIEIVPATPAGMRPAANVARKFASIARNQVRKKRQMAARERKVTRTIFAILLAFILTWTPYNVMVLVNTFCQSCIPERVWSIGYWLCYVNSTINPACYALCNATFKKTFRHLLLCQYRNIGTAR
Method in brief: as §1

human M4 receptor = target: T3, human M4 receptor (Homo sapiens, UniProt P08173); assay: M4 GTPγS PAM assay (CHO-K1 membranes, 35S-GTP binding, with EC20 acetylcholine); type: biochemical; conditions: with EC20 acetylcholine (40 nM)
T3 construct: expressed in transfected cells; host or cells: CHO-K1 cells (membranes)
T3 sequence (P08173 1-479): T1 sequence (P08173 1-479)
Method in brief: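 Membranes from CHO-K1 cells stably expressing human M4 ([…]) in 20 mM HEPES, 10 mM MgCl2, 100 mM NaCl, with 0.1 μM GDP final, were preincubated with compound 10-15 min at RT. Acetylcholine at EC20 (40 nM final) was added for 10-15 min, then 0.4 nM 35S-GTP solution for 1 h at RT. Filter-bound radioactivity was counted.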

- pEC50 (hM4 receptors): > 7.30
- pEC50 (rM4 receptors): 6.70 to 7.30
- pEC50 (human M4 receptor): > 7.30
SMILES: Cc1c2c(n(C)c(=O)c1Cl)CN(C(=O)CC1CN(c3ccnc(C(F)(F)F)c3)C1)C2C (stereo not drawn) [Compound I-118, 3-Chloro-1,4,5-trimethyl-6-(2-(1-(2-(trifluoromethyl)pyridin-4-yl)azetidin-3-yl)acetyl)-1,5,6,7-tetrahydro-2H-pyrrolo[3,4-b]pyridin-2-one]
